pIC50: −log10 of the molar value. Where two headings read alike, the source gives them in different places.
Assays:
[1] = in vivo PK properties (cassette PK); conditions: plasma; for AUC(0-t): read-out: AUC0-last (nm/hr); for Vd: read-out: Vdss
[2] = system: MCF-7 breast cancer cell xenograft; assay: antitumor activity on MCF-7 breast cancer cell xenograft model; type: in vivo, BALB/c nude mice; conditions: for T/C (%) / TGI (%) / tumor volumn (mm^3) 17th day after grouping: oral, once a day, ARN-810 10/30 mg/kg, I-1 30 mg/kg; for T/C (%) / TGI (%): 17th day after grouping; for tumor volumn (mm^3) 17th day after grouping: Mean ± SEM
Method: Mice were inoculated subcutaneously with 0.36 mg estrogen sustained release tablet (60 days release) on the left shoulder three days before inoculation. When cells were in the logarithmic growth phase, cells were harvested, counted and adjusted to 10×10^7 cells/mL, then an equal volume of Matrigel was added, mixing for inoculation. 0.2 mL MCF-7 tumor cell suspension (10×10^6) was inoculated subcutaneously into the right shoulder of each mouse. On the 7th day after tumor cell inoculation, mice were grouped and administrated once a day, with an average tumor volume of 169 mm^3 and a body weight of 23.33 g. Tumor volume and body weight were measured twice a week after grouping, and the tumor growth rate (T/C) and tumor growth inhibition rate (TGI) were calculated based on the last measuring data on the 17th day after grouping.

[3] = drug distribution in tissues (plasma, tumor, brain); type: in vivo, mice; conditions: for AUC0-last (nmol · h/kg) brain / AUC0-last (nmol · h/kg) plasma / AUC0-last (nmol · h/kg) tumor: dose 67.3 μmol/kg, 20th day after grouping
Method: On the 20th day after grouping, the sample was collected from plasma, tumor, breast and brain of the mice at four time points (2-3 mice each time point) which was respectively 0.5 hour, 1.5 hours, 6 hours and 24 hours after administration. The blood (0.5 mL) was collected using a 1.5 mL EDTA-K2 anticoagulation tube, immediately centrifuged at 4000 rpm, 4° C. for 10 minutes to prepare plasma, the plasma sample was stored at −80° C. for determination of drug concentration. The tumor was collected using a 2 mL cryotube, and the brain was collected using a 5 mL cryotube, the samples were immediately put into liquid nitrogen for quike freeze. All samples were stored at −80° C. for determination of drug concentration after sampling. The result was converted based on corresponding AUC to compare the drug distribution.

MCF-7 cells = assay: MCF-7 cell proliferation inhibition assay; type: cell-based; conditions: Homo sapiens, MCF7, 144 h; MCF-7 cells, 6 days incubation, CellTiter-Glo; read-out: anti-proliferation in MCF-7 cells
Method: Experimental Reagent: RPMI 1640 medium, fetal bovine serum, Promega CellTiter-Glo reagent. The cell line MCF-7 was purchased from The European Collection of Authenticated Cell Cultures (ECACC). Envision Multilabel Reader (PerkinElmer). Experimental Method: […] The cell plate was placed in a carbon dioxide incubator overnight. […] The cell plate was incubated in a carbon dioxide incubator for 6 days. Promega CellTiter-Glo reagent was added to the cell plate at 25 μL per well, cells were incubated for 10 minutes at room temperature to stabilize the luminescence signal, which was measured using PerkinElmer Envision Multilabel Reader. Data Analysis: […] (Model 205 in XLFIT5, iDBS)

[4] = plasma protein binding rate (Human); type: in vitro ADME
[5] = plasma protein binding rate (CD-1 mouse); type: in vitro ADME
CYP 1A2 = target: T1, CYP 1A2 (Homo sapiens, UniProt P05177); assay: inhibition of CYP enzymes 1A2; type: in vitro ADME
T1 sequence (P05177 1-516): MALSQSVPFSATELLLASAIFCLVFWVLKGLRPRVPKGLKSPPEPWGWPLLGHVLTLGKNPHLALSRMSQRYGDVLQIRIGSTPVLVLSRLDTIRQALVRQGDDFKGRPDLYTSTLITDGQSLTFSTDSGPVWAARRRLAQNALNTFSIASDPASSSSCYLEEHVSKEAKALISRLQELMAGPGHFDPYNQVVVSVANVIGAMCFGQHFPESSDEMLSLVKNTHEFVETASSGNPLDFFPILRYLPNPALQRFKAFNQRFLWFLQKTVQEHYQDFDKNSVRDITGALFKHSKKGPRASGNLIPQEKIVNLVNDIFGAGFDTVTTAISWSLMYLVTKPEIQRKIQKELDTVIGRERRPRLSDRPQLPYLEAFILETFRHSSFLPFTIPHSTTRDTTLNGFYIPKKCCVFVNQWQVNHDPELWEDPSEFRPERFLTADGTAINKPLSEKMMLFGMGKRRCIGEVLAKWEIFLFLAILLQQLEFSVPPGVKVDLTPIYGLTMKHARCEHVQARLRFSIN

CYP 2C9 = CYP 2C9 (Homo sapiens, UniProt P11712); assay: inhibition of CYP enzymes 2C9; type: in vitro ADME
CYP 2C19 = CYP 2C19 (Homo sapiens, UniProt P33261); assay: inhibition of CYP enzymes 2C19; type: in vitro ADME
CYP 2D6 = CYP 2D6 (Homo sapiens, UniProt P10635); assay: inhibition of CYP enzymes 2D6; type: in vitro ADME
CYP 3A4 = CYP 3A4 (Homo sapiens, UniProt P08684); assay: inhibition of CYP enzymes 3A4; type: in vitro ADME
[6] = prior art statement; cited from earlier work
breast cancer = conditions: intramuscular injection, prior art statement; cited from earlier work

Chain of CYP 2D6 (P10635 whole entry): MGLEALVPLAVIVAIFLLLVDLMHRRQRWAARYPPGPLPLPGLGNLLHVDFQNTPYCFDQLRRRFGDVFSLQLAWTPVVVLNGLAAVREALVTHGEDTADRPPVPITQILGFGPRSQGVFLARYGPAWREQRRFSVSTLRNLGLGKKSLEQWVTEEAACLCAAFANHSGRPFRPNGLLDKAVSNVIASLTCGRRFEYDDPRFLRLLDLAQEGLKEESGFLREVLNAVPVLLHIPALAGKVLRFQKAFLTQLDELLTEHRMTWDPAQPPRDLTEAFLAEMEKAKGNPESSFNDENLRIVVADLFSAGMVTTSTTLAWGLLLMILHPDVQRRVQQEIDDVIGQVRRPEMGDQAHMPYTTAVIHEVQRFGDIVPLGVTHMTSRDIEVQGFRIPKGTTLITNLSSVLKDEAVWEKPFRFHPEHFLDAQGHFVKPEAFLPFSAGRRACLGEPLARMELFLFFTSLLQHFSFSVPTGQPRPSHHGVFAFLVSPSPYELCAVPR
Chain of CYP 2C19 (P33261 whole entry): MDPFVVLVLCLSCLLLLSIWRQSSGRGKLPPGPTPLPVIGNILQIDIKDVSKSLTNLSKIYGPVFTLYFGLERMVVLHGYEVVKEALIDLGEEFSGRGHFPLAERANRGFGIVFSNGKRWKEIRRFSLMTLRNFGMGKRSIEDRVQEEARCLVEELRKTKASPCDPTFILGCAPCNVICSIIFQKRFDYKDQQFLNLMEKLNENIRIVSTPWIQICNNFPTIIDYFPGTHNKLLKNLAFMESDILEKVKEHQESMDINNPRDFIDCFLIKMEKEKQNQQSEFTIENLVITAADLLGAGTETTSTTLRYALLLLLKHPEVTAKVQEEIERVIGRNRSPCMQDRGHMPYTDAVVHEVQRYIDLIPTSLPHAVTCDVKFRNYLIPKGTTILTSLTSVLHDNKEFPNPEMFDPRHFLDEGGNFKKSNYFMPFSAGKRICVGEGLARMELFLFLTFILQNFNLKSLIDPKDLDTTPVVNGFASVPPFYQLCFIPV
Chain of CYP 2C9 (P11712 whole entry): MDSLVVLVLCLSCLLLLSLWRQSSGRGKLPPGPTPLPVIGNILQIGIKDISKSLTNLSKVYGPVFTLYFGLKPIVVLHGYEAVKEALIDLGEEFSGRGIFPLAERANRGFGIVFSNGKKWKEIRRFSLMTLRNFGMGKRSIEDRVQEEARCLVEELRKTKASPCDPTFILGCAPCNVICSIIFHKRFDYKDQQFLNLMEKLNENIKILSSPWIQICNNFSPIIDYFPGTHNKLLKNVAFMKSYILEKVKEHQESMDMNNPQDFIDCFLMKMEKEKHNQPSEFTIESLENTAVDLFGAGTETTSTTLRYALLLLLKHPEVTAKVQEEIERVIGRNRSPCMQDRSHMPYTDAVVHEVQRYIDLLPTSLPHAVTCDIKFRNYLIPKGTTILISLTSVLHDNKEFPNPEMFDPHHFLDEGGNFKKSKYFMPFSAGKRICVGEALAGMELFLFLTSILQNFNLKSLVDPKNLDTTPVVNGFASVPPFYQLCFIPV
Chain of CYP 3A4 (P08684 whole entry): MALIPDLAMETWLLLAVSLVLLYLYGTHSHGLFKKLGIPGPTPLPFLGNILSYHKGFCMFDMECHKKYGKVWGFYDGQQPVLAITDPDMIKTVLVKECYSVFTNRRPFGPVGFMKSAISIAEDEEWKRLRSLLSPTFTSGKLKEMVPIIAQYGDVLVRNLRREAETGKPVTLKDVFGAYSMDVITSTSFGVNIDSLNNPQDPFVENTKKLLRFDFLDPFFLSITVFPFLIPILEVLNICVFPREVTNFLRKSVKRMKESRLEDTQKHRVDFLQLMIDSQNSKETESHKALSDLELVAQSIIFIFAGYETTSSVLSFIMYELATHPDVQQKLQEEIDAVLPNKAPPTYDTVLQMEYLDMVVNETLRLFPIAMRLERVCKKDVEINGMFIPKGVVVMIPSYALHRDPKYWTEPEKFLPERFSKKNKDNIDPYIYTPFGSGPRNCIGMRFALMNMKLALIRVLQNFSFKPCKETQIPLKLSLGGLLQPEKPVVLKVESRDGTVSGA

C0 ([1]; iv, 1 mg/kg, i.V. 1 mpk)	clearance ([1]; iv, 1 mg/kg, i.V. 1 mpk)	half-life ([1]; iv, 1 mg/kg, i.V. 1 mpk)	AUC(0-t) ([1]; iv, 1 mg/kg, i.V. 1 mpk)	Vd ([1]; iv, 1 mg/kg, i.V. 1 mpk)	Cmax ([1]; po, 2.5 mg/kg, P.O 2.5 mpk)	Tmax ([1]; po, 2.5 mg/kg, P.O 2.5 mpk)	bioavailability ([1]; po, 2.5 mg/kg, P.O 2.5 mpk)	half-life ([1]; po, 2.5 mg/kg, P.O 2.5 mpk)	AUC(0-t) ([1]; po, 2.5 mg/kg, P.O 2.5 mpk)	AUC0-last (nmol · h/kg) brain [3]	AUC0-last (nmol · h/kg) plasma [3]	AUC0-last (nmol · h/kg) tumor [3]	SMILES	T/C (%) [2]	TGI (%) [2]	tumor volumn (mm^3) 17th day after grouping [2]	also measured
1640 nM	18.9 mL/min/kg	1.35 h	1.99 µM·h	1.93 L/kg	924 nM	0.417 h	66%	3.49 h	3.28 µM·h	3490 nmol·h/kg	33545 nmol·h/kg	11368 nmol·h/kg	CC/C(=C(/c1ccc(/C=C/C(=O)O)cc1)c1ccc2[nH]ncc2c1)c1ccc(F)cc1Cl [ARN-810, reference compound]	43.4%	75.7%	290 ± 38 mm^3	
3480 nM	3.61 mL/min/kg	2.81 h	10.4 µM·h	0.992 L/kg	2150 nM	3.33 h	70.6%	3.18 h	18.3 µM·h	43167 nmol·h/kg	118937 nmol·h/kg	55487 nmol·h/kg	CC/C(=C(/c1ccc(/C=C/C(=O)O)cc1)c1cc2ccccc2[nH]1)c1ccc(F)cc1Cl [Compound I-1]	30.1%	93.6%	201 ± 27 mm^3	pIC50 (MCF-7 cells): 7.41; fraction unbound [4]: 0.028; fraction unbound [5]: 0.012; IC50 (CYP 1A2): 25.5 µM; IC50 (CYP 2C9): 10.1 µM; IC50 (CYP 2C19): 40.4 µM; IC50 (CYP 2D6): 43.4 µM; IC50 (CYP 3A4): 25.1 µM; antitumor activity compared with ARN-810 ([2]; oral I-1 30 mg/kg versus oral ARN-810 10/30 mg/kg): superior; distribution in brain tissue compared with ARN-810 ([3]; brain tissue): much better; distribution in tumor tissue compared with ARN-810 ([3]; tumor tissue): much better
													C[C@]12CC[C@@H]3c4ccc(O)cc4C[C@@H](CCCCCCCCC[S+]([O-])CCCC(F)(F)C(F)(F)F)[C@H]3[C@@H]1CC[C@@H]2O (stereo partly drawn) [fulvestrant]				oral bioavailability [6]: zero; breast cancer patients showing clinical response (breast cancer): about 50%

Source: patent publication US10519143B2, “Substituted-indole-compounds as estrogen receptor down-regulators” (LUOXIN PHARMACEUTICAL (SHANGHAI) CO., LTD, priority 2016, dated 2019)
